Patent US6500842B1, “8-hydroxy-7-substituted quinolines as anti-viral agents” (Pharmacia & Upjohn Company, priority 1996, dated 2002)
Several values for one entry are separate records, joined by “and”; a condition that tells them apart may be missing. Identical values can stand only once. Like-named read-outs stand apart in the source and are kept apart here.

How the values were obtained:
HCMV polymerase = target: T1, HCMV polymerase (Human cytomegalovirus, UniProt P08546); test: HCMV polymerase assay (scintillation proximity assay); assay type: biochemical; details: pol type CMV
T1 construct: made in house; host or cells: recombinant baculovirus-infected SF-9 cells
T1 sequence (P08546 whole entry): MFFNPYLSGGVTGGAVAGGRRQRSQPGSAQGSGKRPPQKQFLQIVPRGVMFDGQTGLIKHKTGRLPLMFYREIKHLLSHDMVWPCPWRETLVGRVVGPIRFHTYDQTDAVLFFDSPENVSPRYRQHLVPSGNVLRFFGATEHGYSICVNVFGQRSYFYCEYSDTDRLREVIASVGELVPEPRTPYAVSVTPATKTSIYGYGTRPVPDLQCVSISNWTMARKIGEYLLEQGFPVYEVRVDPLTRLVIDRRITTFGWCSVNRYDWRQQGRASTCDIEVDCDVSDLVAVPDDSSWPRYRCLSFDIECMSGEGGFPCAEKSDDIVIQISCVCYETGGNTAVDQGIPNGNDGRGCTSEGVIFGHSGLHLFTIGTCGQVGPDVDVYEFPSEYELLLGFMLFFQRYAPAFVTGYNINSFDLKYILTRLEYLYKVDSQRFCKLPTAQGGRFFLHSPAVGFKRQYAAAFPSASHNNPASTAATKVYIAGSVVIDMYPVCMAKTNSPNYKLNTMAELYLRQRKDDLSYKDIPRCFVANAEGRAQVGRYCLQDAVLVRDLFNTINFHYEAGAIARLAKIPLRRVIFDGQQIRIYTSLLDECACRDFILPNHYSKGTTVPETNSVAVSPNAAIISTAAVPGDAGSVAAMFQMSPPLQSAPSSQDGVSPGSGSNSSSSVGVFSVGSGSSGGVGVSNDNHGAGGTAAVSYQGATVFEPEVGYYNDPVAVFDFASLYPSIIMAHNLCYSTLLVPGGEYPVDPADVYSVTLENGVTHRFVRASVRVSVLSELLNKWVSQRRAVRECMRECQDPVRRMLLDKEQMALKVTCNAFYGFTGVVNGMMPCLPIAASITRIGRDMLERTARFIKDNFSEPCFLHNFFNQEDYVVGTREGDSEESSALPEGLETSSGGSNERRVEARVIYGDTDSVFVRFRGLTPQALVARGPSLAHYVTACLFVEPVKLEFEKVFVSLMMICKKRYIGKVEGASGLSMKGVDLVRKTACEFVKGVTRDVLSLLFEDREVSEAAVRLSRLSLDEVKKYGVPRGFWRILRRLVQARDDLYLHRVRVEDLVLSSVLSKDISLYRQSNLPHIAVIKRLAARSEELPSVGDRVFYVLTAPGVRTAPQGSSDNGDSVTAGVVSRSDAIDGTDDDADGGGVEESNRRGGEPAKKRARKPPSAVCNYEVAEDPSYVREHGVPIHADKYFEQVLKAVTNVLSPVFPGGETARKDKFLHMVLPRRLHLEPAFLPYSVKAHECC
In short: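 Baculovirus/SF-9-expressed purified enzyme in HEPES pH 7.5, KCl, 4.5 mM MgCl2, BSA, with 90 nM ³H-dTTP, ± 2 mM CHAPS; started with 6 nM biotinylated poly(dA)-oligo(dT), 30 min, stopped with EDTA. Incorporation read by streptavidin SPA beads; IC50 by linear regression.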

CMV polymerase = target: T2, CMV polymerase (Human cytomegalovirus, UniProt P08546); test: modified version of the HCMV polymerase assay (100% DMSO dilution, DTT, different enzyme lot); assay type: biochemical
T2 construct: made in house; host or cells: recombinant baculovirus-infected SF-9 cells
T2 sequence (P08546 whole entry): as above
Experimental: The HCMV polymerase assay is performed using a scintillation proximity assay (SPA) as described in several references, such as N. D. Cook, et al., Pharmaceutical Manufacturing International, pages 49-53 (1992); K. Takeuchi, Laboratory Practice, September issue (1992); U.S. Pat. No. 4,568,649 (1986); which are incorporated by reference herein. Reactions are performed in 96-well plates. The assay is conducted in 100 μl volume with 5.4 mM HEPES (pH 7.5), 11.7 mM KCl, 4.5 mM MgCl2, 0.36 mg/ml BSA, and 90 nM ^3H-dTTP. Assays are run with and without CHAPS, (3-[(3-Cholamidopropyl)-dimethylammonio]-1-propane-sulfonate) at a final concentration of 2 mM. HCMV is diluted in enzyme dilution buffer containing 50% glycerol, 250 mM NaCl, 10 mM HEPES (pH 7.5), 100 pg/ml BSA, and 0.01% sodium azide. The HCMV polymerase, which is expressed in recombinant baculovirus-infected SF-9 cells and purified according to literature procedures, is added at 10% (or 10 μl) of the final reaction volume, i.e., 100 μl. Compounds are diluted in 50% DMSO and 10 μl are added to each well. Control wells contain an equivalent concentration of DMSO. Unless noted otherwise, reactions are initiated via the addition of 6 nM biotinylated poly(dA)-oligo(dT) template/primer to reaction mixtures containing the enzyme, substrate, and compounds of interest. Plates are incubated in a 25° C. of 37° C. H2O bath and terminated via the addition of 40 μl/reaction of 0.5 M EDTA (pH 8) per well. Reactions are terminated within the time-frame during which substrate incorporation is linear and varied depending upon the enzyme and conditions used, i.e., 30 min. for HCMV polymerase. Ten μl of streptavidin-SPA beads (20 mg/ml in PBS/10% glycerol) are added following termination of the reaction. Plates are incubated 10 min. at 37° C., then equilibrated to room temperature, and counted on a Packard Topcount. Linear regressions are performed and IC50's are calculated using computer software. Results of the testing of compounds of the present invention in this assay are shown in Tables 1, 2, 5, 9, 10, 11, 13 (except for the last compound which was tested under modified conditions) and 14 below.
A modified version of the above HCMV polymerase assay is performed as described above, but with the following changes: Compounds are diluted in 100% DMSO until final dilution into assay buffer. In the previous assay, compounds are diluted in 50% DMSO. 4.5 mM dithiotherotol (DTT) is added to the polymerase buffer.

[1] = Table 1, read-out: CMV pol Assay IC50
[2] = Polymerase CMV, Table 7, read-out: Antiviral Selective Polymerase IC50 Values - IC50

Row | SMILES | melting point | further results
1 | O=C(Nc1ccc(Cl)cc1)c1cc(Cl)c2cccnc2c1O [Example 15, 5-Chloro-N-(4-chlorophenyl)-8-hydroxy-7-quinolinecarboxamide] | 214 to 216 °C | IC50 (HCMV polymerase; [1]): 1.6 µM
2 | CC(C)C[C@H](Nc1nnc(NC(=O)c2ccc3cccnc3c2O)s1)C(=O)OC(C)(C)C.O (hydrate or solvate) | 214 to 215 °C | –
3 | O=S(=O)(Nc1ccc(Cl)cc1)c1cc(Cl)c2cccnc2c1O [Example 20, 5-Chloro-N-(4-chlorophenyl)-8-hydroxy-7-quinoline-sulfonamide] | 97 °C (dec.) | IC50 (HCMV polymerase; Table 2, read-out: IC50): 14.5 µM
4 | O=C(NCc1ccc([N+](=O)[O-])cc1)c1ccc2cccnc2c1O [Example 12, 8-Hydroxy-N-[(4-nitrophenyl)methyl]-7-quinolinecarboxamide] | 210 to 212 °C | IC50 (HCMV polymerase; [1]): 15.9 µM
5 | COc1ccc(/C=C/c2ccc3ccc(C(=O)NCc4ccc(Cl)cc4)c(O)c3n2)cc1 [Example 47, N-[(4-Chlorophenyl)methyl]-8-hydroxy-2-[2-(4-methoxyphenyl)ethenyl]-7-quinolinecarboxamide] | 200 to 201 °C | IC50 (HCMV polymerase; Table 5, read-out: IC50): 0.35 µM and < 0.3 µM
6 | O=C(Nc1ccc(Cl)cc1)c1cc(Br)c2cccnc2c1O [Example 4, 5-Bromo-N-(4-chlorophenyl)-8-hydroxy-7-quinolinecarboxamide] | 213 to 215 °C | IC50 (HCMV polymerase; [1]): 3.9 µM and 3.1 µM and 5.1 µM
7 | N#CCNC(=O)c1ccc2cccnc2c1O [Example 72, N-(cyanomethyl)-8-hydroxy-7-quinolinecarboxamide] | 206 to 208 °C (dec.) | –
8 | O=C(NC1=NC(=O)C(c2ccc(Cl)cc2)S1)c1ccc2cccnc2c1O (stereo not shown) [Example 5, N-[5-(4-Chlorophenyl)-4,5-dihydro-4-oxo-2-thiazolyl]-8-hydroxy-7-quinolinecarboxamide] | 272 to 276 °C (dec.) | IC50 (HCMV polymerase; [1]): 6.8 µM
9 | O=S(=O)(NCc1ccccc1)c1cc(Br)c2cccnc2c1O [Example 24, 5-Bromo-8-hydroxy-N-(phenylmethyl)-7-quinolinesulfonamide] | 191 to 192 °C | –
10 | Cc1ccc2ccc(C(=O)NCc3ccc(Cl)cc3)c(O)c2n1 [Example 10, N-[(4-Chlorophenyl)methyl]-8-hydroxy-2-methyl-7-quinolinecarboxamide] | 95 to 98 °C | IC50 (HCMV polymerase; [1]): 19 µM
11 | Cc1ccc2c(Cl)cc(S(=O)(=O)NCc3cccc(Cl)c3)c(O)c2n1 [Example 33, 5-Chloro-N-[(3-chlorophenyl)methyl]-8-hydroxy-2-methyl-7-quinolinesulfonamide] | 52 to 54 °C | IC50 (HCMV polymerase; Table 2, read-out: IC50): 12.8 µM
12 | Cc1ccc2c(Cl)cc(S(=O)(=O)Nc3ccc(Cl)cc3)c(O)c2n1 [Example 28, 5-Chloro-N-(4-chlorophenyl)-8-hydroxy-2-methyl-7-quinoline-sulfonamide] | 284 to 287 °C (dec.) | IC50 (HCMV polymerase; Table 2, read-out: IC50): 5.5 µM
13 | Cc1ccc2c(Cl)cc(S(=O)(=O)NCc3ccccc3)c(O)c2n1 [Example 27, 5-Chloro-8-hydroxy-2-methyl-N-(phenylmethyl)-7-quinoline-sulfonamide] | 113 to 114 °C | IC50 (HCMV polymerase; Table 2, read-out: IC50): 14.8 µM
14 | O=C(Nc1nc2ccc(Cl)cc2s1)c1ccc2cccnc2c1O [Example 13, N-(6-Chloro-2-benzothiazolyl)-8-hydroxy-7-quinolinecarboxamide] | > 320 °C | IC50 (HCMV polymerase; [1]): > 100 µM
15 | Br.O=S(=O)(NCCCc1ccccc1)c1cc(Cl)c2cccnc2c1O [Example 21, 5-Chloro-8-hydroxy-N-(3-phenylpropyl)-7-quinolinesulfonamide monohydrobromide] | 210 to 212 °C (dec.) | IC50 (HCMV polymerase; Table 2, read-out: IC50): 7.5 µM and 12.6 µM
16 | O=C(NCc1ccc(Cl)cc1)c1cc(Br)c2cccnc2c1O [Example 9, 5-Bromo-N-[(4-chlorophenyl)methyl]-8-hydroxy-7-quinolinecarboxamide] | 148 to 151 °C | IC50 (HCMV polymerase; [1]): 2.5 µM
17 | Cc1ccc2c(Cl)cc(S(=O)(=O)NCC3CCCCC3)c(O)c2n1 [Example 32, 5-Chloro-N-(cyclohexylmethyl)-8-hydroxy-2-methyl-7-quinolinesulfonamide] | 113 to 115 °C | –

Row | SMILES | melting point | further results
18 | O=C(NCc1ccc(Cl)cc1)c1ccc2ccc(C(F)(F)F)nc2c1O [Example 55, N-[(4-Chlorophenyl)methyl]-8-hydroxy-2-(trifluoromethyl)-7-quinolinecarboxamide] | 92 to 94 °C | IC50 (HCMV polymerase; Table 5, read-out: IC50): 31.5 µM and 19.7 µM
19 | CC(C)c1ccc(S(=O)(=O)NCCCCCNC(=O)c2ccc3cccnc3c2O)cc1 [Example 71] | 106 to 108 °C | –
20 | O=C(Nc1nnc(Br)s1)c1ccc2cccnc2c1O [Example 244, N-(5-Bromo-1,3,4-thiadiazol-2-yl)-8-hydroxy-7-quinolinecarboxamide] | 250 °C (dec.) | –
21 | Cc1ccc(NC(=O)c2ccc3cccnc3c2O)c(C)c1 [Example 166, N-(2,4-Dimethylphenyl)-8-hydroxy-7-quinolinecarboxamide] | 164 to 167 °C | –
22 | Cc1ccc2c(Cl)cc(C(=O)NCCCc3ccccc3)c(O)c2n1 [Example 69, 5-chloro-8-hydroxy-2-methyl-N-(3-phenylpropyl)-7-quinolinecarboxamide] | 109 to 111 °C | –
23 | CC(C)c1ccc(S(=O)(=O)NCCCCCNC(=O)c2ccc3cccnc3c2O)cc1 [drawing 128] | – | IC50 (CMV polymerase; [2]): < 3.1 µM
24 | Cc1ccc2c(Cl)cc(C(=O)NCCSc3ccccc3)c(O)c2n1 [drawing 127] | – | IC50 (CMV polymerase; [2]): 42.8 µM
25 | Cc1ccc2c(Cl)cc(S(=O)(=O)NCCc3c[nH]c4ccccc34)c(O)c2n1 [Example 64] | – | % Inhibition (CMV polymerase; Concentration 3.13 μM, Table 6): 16%; % Inhibition (CMV polymerase; Concentration 6.25 μM, Table 6): 25%; % Inhibition (CMV polymerase; Concentration 12.5 μM, Table 6): 25%; % Inhibition (CMV polymerase; Concentration 25 μM, Table 6): 46%; % Inhibition (CMV polymerase; Concentration 50 μM, Table 6): 75%; % Inhibition (CMV polymerase; Concentration 100 μM, Table 6): 58%; % Inhibition (CMV polymerase; Concentration 200 μM, Table 6): 84%; IC50 (CMV polymerase; Table 6, read-out: IC50): 29.8 µM
26 | Cc1ccc2c(Cl)cc(C(=O)NCCCc3ccccc3)c(O)c2n1 [drawing 126] | – | IC50 (CMV polymerase; [2]): 9.7 µM and 9.4 µM
27 | O=C(Nc1cc(C(F)(F)F)ccc1Cl)c1ccc2cccnc2c1O [Example 164, N-[2-Chloro-5-(trifluoromethyl)phenyl]-8-hydroxy-7-quinolinecarboxamide] | 210 to 211 °C | –
28 | O=C(Nc1nnc(C(F)(F)F)s1)c1ccc2cccnc2c1O [Example 243, 8-Hydroxy-N-[5-(trifluoromethyl)-1,3,4-thiadiazol-2-yl]-7-quinolinecarboxamide] | 300 to 302 °C (dec.) | –
29 | CCCCCCCNC(=O)c1ccc2ccc(C(F)(F)F)nc2c1O [Example 56, N-Heptyl-8-hydroxy-2-(trifluoromethyl)-7-quinolinecarboxamide] | 97 to 99 °C | –
30 | Cc1ccc2c(Cl)cc(C(=O)NCCSc3ccccc3)c(O)c2n1 [Example 70, 5-chloro-8-hydroxy-2-methyl-N-[(2-phenylthio)ethyl]-7-quinolinecarboxamide] | 131 to 134 °C | –
31 | Cc1ccc2c(Cl)cc(C(=O)NCc3ccc(Cl)cc3)c(O)c2n1 [Example 68, 5-Chloro-N-[(4-chlorophenyl)methyl]-8-hydroxy-2-methyl-7-quinolinecarboxamide] | 128 to 130 °C | –
32 | Cc1ccc(F)cc1NC(=O)c1ccc2cccnc2c1O [Example 165, N-(5-Fluoro-2-methylphenyl)-8-hydroxy-7-quinolinecarboxamide] | 209 to 210 °C | –
33 | COc1ccc(CCc2ccc3ccc(C(=O)NCC(O)c4ccccc4)c(O)c3n2)cc1 (stereo not shown) [Example 73, 8-hydroxy-N-(2-hydroxy-2-phenylethyl)-2-[2-(4-methoxyphenyl)ethyl]-7-quinolinecarboxamide] | 69 to 72 °C | –
34 | CSCC[C@H](Nc1nnc(NC(=O)c2ccc3cccnc3c2O)s1)C(=O)OC(C)(C)C.O (hydrate or solvate) | 204 to 205 °C | –
